Measured values published in patent US20220347168A1, “LUNG TARGETED ANTICANCER THERAPIES WITH LIPOSOMAL ANNAMYCIN” (Board of Regents, The University of Texas System, priority 2019, published 2022).

Key:
[1] = Pharmacokinetic and organ distribution studies of Annamycin and L-Annamycin; format: in vivo; details: CD-1, mouse, lung and plasma, intravenous, 4 mg/kg; AUC, 24 h; read-out: Annamycin levels (AUC, 24 h) in lungs relative to plasma
P-glycoprotein 1 (P-gp) = P-glycoprotein 1 (P-gp) (Homo sapiens, UniProt P08183); details: earlier studies; cited from earlier work
[2] = system: multidrug resistant (MDR) cell lines; details: earlier studies; cited from earlier work

Chain of P-glycoprotein 1 (P-gp) (P08183 whole entry, species assumed): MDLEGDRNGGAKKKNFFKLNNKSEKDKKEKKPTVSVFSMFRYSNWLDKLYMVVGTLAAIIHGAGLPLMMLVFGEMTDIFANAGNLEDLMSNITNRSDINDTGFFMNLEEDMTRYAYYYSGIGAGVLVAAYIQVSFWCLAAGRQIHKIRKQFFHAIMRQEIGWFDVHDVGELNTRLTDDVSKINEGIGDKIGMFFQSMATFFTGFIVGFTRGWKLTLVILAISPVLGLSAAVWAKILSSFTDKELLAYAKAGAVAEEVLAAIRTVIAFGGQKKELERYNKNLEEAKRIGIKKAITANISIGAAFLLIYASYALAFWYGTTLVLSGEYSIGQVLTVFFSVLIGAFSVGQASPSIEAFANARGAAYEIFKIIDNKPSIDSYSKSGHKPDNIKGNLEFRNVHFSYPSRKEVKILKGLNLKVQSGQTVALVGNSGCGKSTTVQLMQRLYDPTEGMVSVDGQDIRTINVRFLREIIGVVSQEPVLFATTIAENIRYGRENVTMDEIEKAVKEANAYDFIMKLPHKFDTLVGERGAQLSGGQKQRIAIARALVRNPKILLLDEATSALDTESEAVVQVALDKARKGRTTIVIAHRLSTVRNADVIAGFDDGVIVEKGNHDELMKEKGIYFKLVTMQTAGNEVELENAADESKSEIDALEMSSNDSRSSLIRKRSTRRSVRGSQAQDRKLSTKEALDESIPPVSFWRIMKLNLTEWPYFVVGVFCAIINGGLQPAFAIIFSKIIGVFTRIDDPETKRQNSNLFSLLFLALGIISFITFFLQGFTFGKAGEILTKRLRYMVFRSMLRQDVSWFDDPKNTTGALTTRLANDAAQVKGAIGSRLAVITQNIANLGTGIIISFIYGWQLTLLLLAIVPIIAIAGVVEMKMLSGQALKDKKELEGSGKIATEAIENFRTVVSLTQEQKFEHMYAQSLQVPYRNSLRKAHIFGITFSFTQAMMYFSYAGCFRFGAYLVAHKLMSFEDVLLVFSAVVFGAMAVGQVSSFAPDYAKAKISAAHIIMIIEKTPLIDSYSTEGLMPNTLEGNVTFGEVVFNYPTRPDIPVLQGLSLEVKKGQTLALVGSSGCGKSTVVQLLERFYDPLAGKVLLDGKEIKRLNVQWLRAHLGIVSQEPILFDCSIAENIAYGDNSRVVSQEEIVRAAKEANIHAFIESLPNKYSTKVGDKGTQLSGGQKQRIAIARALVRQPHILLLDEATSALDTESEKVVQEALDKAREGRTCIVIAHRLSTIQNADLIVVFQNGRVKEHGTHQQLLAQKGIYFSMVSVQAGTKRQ

- Kp [1]: > 10
Compound: C[C@@H]1O[C@@H](O[C@H]2C[C@](O)(C(=O)CO)Cc3c(O)c4c(c(O)c32)C(=O)c2ccccc2C4=O)[C@H](I)[C@H](O)[C@H]1O [Annamycin, (7S,9S)-7-(((2R,3R,4R,5R,6S)-4,5-dihydroxy-3-iodo-6-methyltetrahydro-2H-pyran-2-yl)oxy)-6,9,11-trihydroxy-9-(2-hydroxyacetyl)-7,8,9,10-tetrahydrotetracene-5,12-dione]
- substrate for P-glycoprotein 1 (P-gp) (P-glycoprotein 1 (P-gp)): poor substrate
- cross-resistance with doxorubicin (DOX) [2]: not cross-resistant
